Source: patent US6537980B1, “Vitamin D analogues and their pharmaceutical use” (Leo Pharmaceutical Products Ltd., priority 1999, dated 2003)
“Also recorded” adds a separate entry of the source.

Key:
[1] = test system: hairless guinea pigs; experiment: Skin irritation, occlusive patch test in hairless guinea pigs; assay type: in vivo, guinea pig; parameters: key to Skin irritation score: 0: Substances of no irritation; +: Substances of doubtful or very low irritancy compared to calcitriol; ++: Substances of low irritancy compared to calcitriol; +++: Substances with irritances in the same range as calcitriol; ++++: Substances of more irritancy than calcitriol; +++++: Very irritative substances compared to calcftriol; conditions: for Skin irritation score: occlusive patch 48 hours, 500, 50 and 5 μg/ml, clinical grading, LDPI, erythema
Procedure: Skin irritation was assessed in hairless guinea pigs. Randomised occlusive patch testing for 48 hours was used. Each analogue was tested at three dose levels (500 μg/ml, 50 μg/ml, and 5 μg/ml) and a placebo solution was also included. Assessment of skin irritation was blinded and based upon clinical grading and objective measurement of cutaneous blood flow (laser Doppler perfusion imaging, LDPI) and erythema (Minolta ChromaMeter). Furthermore, epidermal thickness as an indication of epidermal hyperplasia was measured.
The irritancy scores were as defined below:
0 Substances of no irritation
+ Substances of doubtful or very low irritancy compared to calcitriol
++ Substances of low irritancy compared to calcitriol
+++ Substances with irritances in the same range as calcitriol
++++ Substances of more irritancy than calcitriol
+++++ Very irritative substances compared to calcftriol

[2] = molecular target: T1, vitamin D receptor (Homo sapiens, UniProt P11473); experiment: Binding to the vitamin D receptor in vitro, relative to Calcitriol; conditions: relative to 1,25(OH)2D3; ratio IC50 of 1,25(OH)2D3 / IC50 of compound; >1 = more active
T1 sequence (P11473 1-427): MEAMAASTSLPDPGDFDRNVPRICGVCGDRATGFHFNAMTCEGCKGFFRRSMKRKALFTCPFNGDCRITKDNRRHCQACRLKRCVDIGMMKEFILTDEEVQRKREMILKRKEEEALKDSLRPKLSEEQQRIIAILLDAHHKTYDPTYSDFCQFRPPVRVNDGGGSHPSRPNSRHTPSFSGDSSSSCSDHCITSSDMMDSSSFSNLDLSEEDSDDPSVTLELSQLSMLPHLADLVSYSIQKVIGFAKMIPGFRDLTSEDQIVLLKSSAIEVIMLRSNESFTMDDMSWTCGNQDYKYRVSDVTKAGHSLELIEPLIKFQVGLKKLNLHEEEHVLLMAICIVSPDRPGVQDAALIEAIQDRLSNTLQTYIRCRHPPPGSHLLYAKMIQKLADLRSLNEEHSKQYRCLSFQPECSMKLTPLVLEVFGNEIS

[3] = test system: rats; experiment: Calcemic activity in rats in vivo; parameters: species or system rat; conditions: for Calc. rel.: calcemic activity in rats relative to 1,25(OH)2D3, >1 = more active
Description: Generally, the classical effects of 1,25(OH)2D3 on the calcium balance in the organism, including calcemic and calciuric activities, are unwanted in the vitamin D analogues of the present invention, in which selectivity for e.g. inhibition of the proliferation of certain cells, absence of calcemic effects and skin irritation is desired.

[4] = test system: HaCaT human skin keratinocyte cell line; experiment: HaCaT antiproliferative assay measuring 3H-thymidine uptake; assay type: cell-based; conditions: for HaCaT rel.: relative to 1,25(OH)2D3, ratio IC50 of 1,25(OH)2D3 / IC50 of compound, 3H-thymidine incorporation, >1 = more active
Description: An assay for the rating of test compounds for antiproliterative activity in skin cells, e.g. antipsoriatic effect, is the in vitro assay using HaCaT, a spontaneously immortalised, non-tumorigenic human skin keratinocyte cell line (Mørk Hansen, C. et al., J. Invest. Dermatol 1, 44-48 (1996)), measuring ^3H -thymidine uptake.

Receptor binding rel. [2] | Calc. rel. [3] | SMILES | skin irritation (in words) ([1]; compared with prior art compounds) | Skin irritation score [1] | calcemic activity (in words) ([3]; rats in vivo, compared with prior art compounds) | antiproliferative activity in skin cells (in words) ([4]; HaCaT, compared with Calcitriol / 1,25(OH)2D3) | HaCaT rel. [4]
0.01 | 0.001 | C=C1C(=CC=C2CCCC3(C)C2CCC3C(C)COCc2cccc(C(C)(C)O)c2)CC(O)CC1O [Compound 100, 1(S),3(R)-Dihydroxy-20(R)-[((3-(2-hydroxy-2-propyl)-phenyl)-methoxy)-methyl]-9,10-seco-pregna-5(Z),7(E),10(19)-triene] | considerably less skin irritation than compounds of the prior art | + | very low calcemic activity; also recorded: negligible | same potency as the compound Calcitriol | 1
– | 0.005 | C=C1/C(=C\C=C2/CCC[C@]3(C)[C@@H]([C@H](C)/C=C/[C@@H](O)C4CC4)CC[C@@H]23)C[C@@H](O)C[C@@H]1O [Calcipotriol, reference compound] | – | +++ | – | – | 2
– | 1 | C=C1/C(=C\C=C2/CCC[C@]3(C)[C@@H]([C@H](C)CCCC(C)(C)O)CC[C@@H]23)C[C@@H](O)C[C@@H]1O [Calcitriol, 1α,25-dihydroxy-vitamin D3, reference compound] | – | +++ | – | – | 1
